Results: article PMC13304593 (Pharmaceuticals, 2026)

Assay: Pharmacokinetics of DTX in mice after oral administration
Type: in vivo, Kunming mice
Settings: lung, oral 20 mg/kg DTX or equivalent
Method: Briefly, the samples were precipitated with three volumes of acetonitrile and analyzed using an LC-MS/MS system comprising a Waters ACQUITY ultra-high-performance liquid chromatography (UPLC) system (Waters Corporation, Milford, MA, USA) and an API 5500 mass spectrometer (AB Sciex LLC, Framingham, MA, USA) equipped with an electrospray ionization source. Separation was performed on an ACQUITY BEH C18 column (2.1 × 100 mm, 1.7 μm; Waters) using a gradient elution.
One hundred specific-pathogen-free (SPF) male Kunming mice (body weight: 22–24 g) were purchased from the Beijing Vital River Laboratory Animal Technology Co., Ltd. (Beijing, China). Mice were housed in an air-conditioned room maintained at 22–24 °C with a 12 h light/12 h dark cycle. Prior to the experiment, mice were fasted for 12 h with free access to water.
Mice were randomly divided by body weight into two main groups, each subdivided into 10 subgroups. […] At each time point post-administration (0.083, 0.25, 0.5, 1, 2, 3, 4, 6, 8, and 12 h), one subgroup of mice from each main group was anesthetized with Zoletil® 50. Systemic blood was collected and heparinized to prepare the plasma. Next, the animals were immediately euthanized by cervical dislocation under deep anesthesia prior to liver and lung excision. […]
Quantitative data are expressed as the mean ± SD.

t1/2: 2.6 h
SMILES: CC(=O)O[C@@]12CO[C@@H]1C[C@H](O)[C@@]1(C)C(=O)[C@H](O)C3=C(C)[C@@H](OC(=O)[C@H](O)[C@@H](NC(=O)OC(C)(C)C)c4ccccc4)C[C@@](O)([C@@H](OC(=O)c4ccccc4)[C@H]21)C3(C)C [DTX, docetaxel]
